Measured values taken from patent US20240208968A1, “ALPHA V BETA 6 AND ALPHA V BETA 1 INTEGRIN INHIBITORS AND USES THEREOF” (DiCE Molecules SV, Inc., priority 2021, published 2024).
Structures can show the parent of a compound that is named as a salt.

Experiments:
αvβ1 = αvβ1 (Homo sapiens, UniProt P05556+P06756); experiment: Solid Phase Integrin αvβ1 Assay; assay type: binding
In short: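 Wells coated with 1 µg/mL recombinant TGFb1-LAP and blocked with 2% BSA/TBST, 1 mM MnCl2; αvβ1 (added at 0.2 µg/mL) and compound incubated 90 min at room temperature. Bound integrin detected by streptavidin-HRP (20 min) and TMB after Mn-containing washes; IC50 by four-parameter logistic fit.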

αvβ6 = αvβ6 (Homo sapiens, UniProt P06756+P18564); experiment: Solid Phase Integrin αvβ6 Assay; assay type: binding
Chain of αvβ6 (P06756 31-992 limits assumed): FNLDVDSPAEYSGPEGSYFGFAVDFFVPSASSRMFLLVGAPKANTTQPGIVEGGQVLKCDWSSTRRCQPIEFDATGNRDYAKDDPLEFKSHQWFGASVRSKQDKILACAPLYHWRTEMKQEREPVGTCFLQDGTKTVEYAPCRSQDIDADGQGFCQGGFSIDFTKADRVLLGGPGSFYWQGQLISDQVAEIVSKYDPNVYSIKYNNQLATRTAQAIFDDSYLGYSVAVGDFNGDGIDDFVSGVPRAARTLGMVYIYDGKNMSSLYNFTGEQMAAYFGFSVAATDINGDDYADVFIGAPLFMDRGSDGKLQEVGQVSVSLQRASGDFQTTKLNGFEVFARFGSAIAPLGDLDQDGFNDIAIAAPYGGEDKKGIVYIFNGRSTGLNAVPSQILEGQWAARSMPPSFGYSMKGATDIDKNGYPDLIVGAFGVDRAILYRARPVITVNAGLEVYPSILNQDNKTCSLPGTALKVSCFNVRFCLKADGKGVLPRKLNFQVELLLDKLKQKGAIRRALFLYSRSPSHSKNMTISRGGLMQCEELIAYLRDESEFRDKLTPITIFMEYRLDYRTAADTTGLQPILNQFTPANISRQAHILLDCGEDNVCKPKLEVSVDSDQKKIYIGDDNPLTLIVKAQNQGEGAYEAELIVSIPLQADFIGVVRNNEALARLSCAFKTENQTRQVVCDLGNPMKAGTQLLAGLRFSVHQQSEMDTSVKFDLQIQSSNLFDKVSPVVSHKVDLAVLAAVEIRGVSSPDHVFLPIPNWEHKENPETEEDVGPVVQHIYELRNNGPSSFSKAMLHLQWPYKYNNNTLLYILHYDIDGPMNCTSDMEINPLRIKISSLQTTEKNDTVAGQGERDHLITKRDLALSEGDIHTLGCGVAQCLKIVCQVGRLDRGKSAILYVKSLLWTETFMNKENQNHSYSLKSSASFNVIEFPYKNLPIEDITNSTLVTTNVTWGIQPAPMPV
Chain of αvβ6 (P18564 22-707 limits assumed): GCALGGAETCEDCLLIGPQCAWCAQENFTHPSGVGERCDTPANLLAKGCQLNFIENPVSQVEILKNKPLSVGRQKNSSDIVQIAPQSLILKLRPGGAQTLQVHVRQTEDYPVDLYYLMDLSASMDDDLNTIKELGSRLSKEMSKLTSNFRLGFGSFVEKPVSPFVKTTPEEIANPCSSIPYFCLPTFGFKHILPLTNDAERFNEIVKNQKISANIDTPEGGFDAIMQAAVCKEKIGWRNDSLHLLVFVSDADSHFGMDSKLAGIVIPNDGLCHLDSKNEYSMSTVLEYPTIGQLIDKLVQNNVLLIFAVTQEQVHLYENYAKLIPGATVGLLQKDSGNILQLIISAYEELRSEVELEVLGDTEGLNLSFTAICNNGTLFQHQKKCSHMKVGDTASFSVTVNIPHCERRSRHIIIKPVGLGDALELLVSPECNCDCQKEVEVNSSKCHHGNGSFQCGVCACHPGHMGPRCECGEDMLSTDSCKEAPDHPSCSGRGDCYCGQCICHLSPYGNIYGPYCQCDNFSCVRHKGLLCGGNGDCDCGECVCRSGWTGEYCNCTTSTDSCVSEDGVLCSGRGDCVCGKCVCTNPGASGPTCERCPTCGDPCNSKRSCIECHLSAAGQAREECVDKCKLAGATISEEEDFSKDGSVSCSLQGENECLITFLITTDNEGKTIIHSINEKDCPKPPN
In short: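 Plates coated with 1 μg/mL recombinant TGFb1-LAP; compounds and αvβ6 (0.2 μg/mL diluted stock) incubated 1 h at room temperature in 2% BSA/TBST with 1 mM MnCl2. Bound integrin detected with streptavidin-HRP and TMB; IC50 from four-parameter logistic fits.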

Chain of αvβ1 (P06756 31-992 limits assumed): as the sequence (P06756 31-992 limits assumed) above
Chain of αvβ1 (P05556 21-728 limits assumed): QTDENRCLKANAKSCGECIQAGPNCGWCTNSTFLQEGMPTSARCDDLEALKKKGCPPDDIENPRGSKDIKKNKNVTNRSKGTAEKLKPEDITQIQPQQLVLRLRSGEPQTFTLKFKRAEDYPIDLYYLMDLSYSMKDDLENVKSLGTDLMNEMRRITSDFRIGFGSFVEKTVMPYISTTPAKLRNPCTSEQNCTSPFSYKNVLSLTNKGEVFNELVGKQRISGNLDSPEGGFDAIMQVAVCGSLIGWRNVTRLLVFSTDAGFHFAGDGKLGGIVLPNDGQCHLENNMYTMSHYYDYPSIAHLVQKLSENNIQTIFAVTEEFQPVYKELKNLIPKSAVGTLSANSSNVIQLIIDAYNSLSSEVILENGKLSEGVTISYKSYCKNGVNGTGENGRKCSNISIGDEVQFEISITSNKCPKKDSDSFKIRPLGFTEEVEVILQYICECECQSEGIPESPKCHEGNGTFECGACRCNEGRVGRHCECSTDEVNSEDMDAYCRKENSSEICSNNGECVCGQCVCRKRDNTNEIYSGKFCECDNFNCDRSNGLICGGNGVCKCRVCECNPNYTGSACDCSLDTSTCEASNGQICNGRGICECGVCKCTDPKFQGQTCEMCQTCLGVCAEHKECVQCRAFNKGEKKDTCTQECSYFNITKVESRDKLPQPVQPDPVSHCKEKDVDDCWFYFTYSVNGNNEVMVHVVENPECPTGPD

In the case of O=C(NC[C@@H](C(=O)O)c1cccc(-c2ccccc2)c1)[C@@H]1CCCN(CCCc2ccc3c(n2)NCCC3)C1 [Compound 256-A, 2-([1,1′-biphenyl]-3-yl)-3-((R)-1-(3-(5,6,7,8-tetrahydro-1,8-naphthyridin-2-yl)propyl)piperidine-3-carboxamido)propanoic acid], the IC50 (αvβ1) is reported as 0.1 to 1 µM and the IC50 (αvβ6) is reported as 0.1 to 1 µM.
For O=C(NC[C@H](C(=O)O)c1cccc(-c2ccccc2)c1)[C@@H]1CCCN(CCCc2ccc3c(n2)NCCC3)C1 [Compound 256-B, 2-([1,1′-biphenyl]-3-yl)-3-((R)-1-(3-(5,6,7,8-tetrahydro-1,8-naphthyridin-2-yl)propyl)piperidine-3-carboxamido)propanoic acid], the IC50 (αvβ1) was < 0.1 µM and the IC50 (αvβ6) was < 0.1 µM.
Cc1cc(C)n(-c2cccc([C@H](CNC(=O)[C@@H]3CCCN(CCCc4ccc5c(n4)NCCC5)C3)C(=O)O)c2)n1 [Compound 257-A, 2-(3-(3,5-dimethyl-1H-pyrazol-1-yl)phenyl)-3-((R)-1-(3-(5,6,7,8-tetrahydro-1,8-naphthyridin-2-yl)propyl)piperidine-3-carboxamido)propanoic acid] was tested, and the IC50 (αvβ1) was < 0.1 µM and the IC50 (αvβ6) was < 0.1 µM.
For Cc1cc(C)n(-c2cccc([C@@H](CNC(=O)[C@@H]3CCCN(CCCc4ccc5c(n4)NCCC5)C3)C(=O)O)c2)n1 [Compound 257-B, 2-(3-(3,5-dimethyl-1H-pyrazol-1-yl)phenyl)-3-((R)-1-(3-(5,6,7,8-tetrahydro-1,8-naphthyridin-2-yl)propyl)piperidine-3-carboxamido)propanoic acid], the IC50 (αvβ1) was < 0.1 µM and the IC50 (αvβ6) was < 0.1 µM.
O=C(NC[C@H](C(=O)O)c1cccc(C2CC2)c1)[C@@H]1CCCN(CCCc2ccc3c(n2)NCCC3)C1 [Compound 258-A, 2-(3-cyclopropylphenyl)-3-((R)-1-(3-(5,6,7,8-tetrahydro-1,8-naphthyridin-2-yl)propyl)piperidine-3-carboxamido)propanoic acid] showed an IC50 (αvβ1) of 0.1 to 1 µM and an IC50 (αvβ6) of 0.1 to 1 µM.
In the case of O=C(NC[C@@H](C(=O)O)c1cccc(C2CC2)c1)[C@@H]1CCCN(CCCc2ccc3c(n2)NCCC3)C1 [Compound 258-B, 2-(3-cyclopropylphenyl)-3-((R)-1-(3-(5,6,7,8-tetrahydro-1,8-naphthyridin-2-yl)propyl)piperidine-3-carboxamido)propanoic acid], the IC50 (αvβ1) is reported as < 0.1 µM and the IC50 (αvβ6) is reported as < 0.1 µM.
With O=C(NC[C@H](C(=O)O)c1ccc(C2CC2)cc1)[C@@H]1CCCN(CCCc2ccc3c(n2)NCCC3)C1 [Compound 259-A, 2-(4-cyclopropylphenyl)-3-((R)-1-(3-(5,6,7,8-tetrahydro-1,8-naphthyridin-2-yl)propyl)piperidine-3-carboxamido)propanoic acid] the IC50 (αvβ1) was < 0.1 µM and the IC50 (αvβ6) was < 0.1 µM.
For O=C(NC[C@H](C(=O)O)c1ccccc1C1CC1)[C@@H]1CCCN(CCCc2ccc3c(n2)NCCC3)C1 [Compound 260-A, 2-(2-cyclopropylphenyl)-3-((R)-1-(3-(5,6,7,8-tetrahydro-1,8-naphthyridin-2-yl)propyl)piperidine-3-carboxamido)propanoic acid], the IC50 (αvβ1) was < 0.1 µM and the IC50 (αvβ6) was < 0.1 µM.
O=C(NC[C@@H](C(=O)O)c1ccccc1C1CC1)[C@@H]1CCCN(CCCc2ccc3c(n2)NCCC3)C1 [Compound 260-B, 2-(2-cyclopropylphenyl)-3-((R)-1-(3-(5,6,7,8-tetrahydro-1,8-naphthyridin-2-yl)propyl)piperidine-3-carboxamido)propanoic acid] was tested, and the IC50 (αvβ1) was 0.1 to 1 µM and the IC50 (αvβ6) was > 1 µM.
For O=C(NC[C@H](Nc1cccc2ccccc12)C(=O)O)[C@@H]1CCCN(CCCc2ccc3c(n2)NCCC3)C1 [Compound 261, (S)-2-(naphthalen-1-ylamino)-3-((R)-1-(3-(5,6,7,8-tetrahydro-1,8-naphthyridin-2-yl)propyl)piperdine-3-carboxamido)propanoic acid], the IC50 (αvβ1) was < 0.1 µM and the IC50 (αvβ6) was < 0.1 µM.
With O=C(N[C@@H](CNC(=O)[C@@H]1CCCN(CCCc2ccc3c(n2)NCCC3)C1)C(=O)O)C1CCCCC1 [Compound 262, (S)-2-(cyclohexanecarboxamido)-3-((R)-1-(3-(5,6,7,8-tetrahydro-1,8-naphthyridin-2-yl)propyl)piperidine-3-carboxamido)propanoic acid hydrochloride] the IC50 (αvβ1) was < 0.1 µM and the IC50 (αvβ6) was < 0.1 µM.
In the case of CC1(C(=O)N[C@@H](CNC(=O)[C@@H]2CCCN(CCCc3ccc4c(n3)NCCC4)C2)C(=O)O)CCCCC1 [Compound 263, (S)-2-(1-methylcyclohexane-1-carboxamido)-3-((R)-1-(3-(5,6,7,8-tetrahydro-1,8-naphthyridin-2-yl)propyl)piperidine-3-carboxamido)propanoic acid hydrochloride], the IC50 (αvβ1) is reported as < 0.1 µM and the IC50 (αvβ6) is reported as < 0.1 µM.
With O=C(NC[C@H](NC(=O)[C@@H]1CCCC[C@H]1C(=O)N1CCCC1)C(=O)O)[C@@H]1CCCN(CCCc2ccc3c(n2)NCCC3)C1 [Compound 264, (S)-2-((1R,2R)-2-(pyrrolidine-1-carbonyl)cyclohexane-1-carboxamido)-3-((R)-1-(3-(5,6,7,8-tetrahydro-1,8-naphthyridin-2-yl)propyl)piperidine-3-carboxamido)propanoic acid] the IC50 (αvβ1) was < 0.1 µM and the IC50 (αvβ6) was < 0.1 µM.
With CC(C)(C)OC(=O)N[C@@H](CNC(=O)[C@@H]1CCCN(CCCc2ccc3c(n2)NCCC3)C1)C(=O)O [Compound 265, (S)-2-((tert-butoxycarbonyl)amino)-3-((R)-1-(3-(5,6,7,8-tetrahydro-1,8-naphthyridin-2-yl)propyl)piperidine-3-carboxamido)propanoic acid] the IC50 (αvβ1) was < 0.1 µM and the IC50 (αvβ6) was < 0.1 µM.
For CNC(=O)c1cccc(CNC(=O)[C@@H]2CCCC[C@H]2C(=O)N[C@@H](CNC(=O)[C@@H]2CCCN(CCCc3ccc4c(n3)NCCC4)C2)C(=O)O)c1 [Compound 266, (S)-2-((1R,2R)-2-((3-(methylcarbamoyl)benzyl)carbamoyl)cyclohexane-1-carboxamido)-3-((R)-1-(3-(5,6,7,8-tetrahydro-1,8-naphthyridin-2-yl)propyl)piperidine-3-carboxamido)propanoic acid], the IC50 (αvβ1) was < 0.1 µM and the IC50 (αvβ6) was < 0.1 µM.
With CN1CCc2ccc(S(=O)(=O)N3CCC[C@@H](C(=O)N[C@@H](CNC(=O)[C@@H]4CCCN(CCCc5ccc6c(n5)NCCC6)C4)C(=O)O)C3)cc21 [Compound 267, (S)-2-((R)-1-((1-methylindolin-6-yl)sulfonyl)piperidine-3-carboxamido)-3-((R)-1-(3-(5,6,7,8-tetrahydro-1,8-naphthyridin-2-yl)propyl)piperidine-3-carboxamido)propanoic acid] the IC50 (αvβ1) was < 0.1 µM and the IC50 (αvβ6) was < 0.1 µM.
For CO[C@H]1CCN(C(=O)[C@@H]2CCCC[C@H]2C(=O)N[C@@H](CNC(=O)[C@@H]2CCCN(CCCc3ccc4c(n3)NCCC4)C2)C(=O)O)C1 [Compound 268, (S)-2-((1R,2R)-2-((S)-3-methoxypyrrolidine-1-carbonyl)cyclohexane-1-carboxamido)-3-((R)-1-(3-(5,6,7,8-tetrahydro-1,8-naphthyridin-2-yl)propyl)piperidine-3-carboxamido)propanoic acid], the IC50 (αvβ1) was < 0.1 µM and the IC50 (αvβ6) was < 0.1 µM.
For CC1(CN[C@@H](CNC(=O)[C@@H]2CCCN(CCCc3ccc4c(n3)NCCC4)C2)C(=O)O)CCCCC1 [Compound 269, (S)-2-(((1-methylcyclohexyl)methyl)amino)-3-((R)-1-(3-(5,6,7,8-tetrahydro-1,8-naphthyridin-2-yl)propyl)piperidine-3-carboxamido)propanoic acid], the IC50 (αvβ1) was > 1 µM and the IC50 (αvβ6) was 0.1 to 1 µM.
O=C(NC[C@H](NC(=O)C12CCC(CC1)CC2)C(=O)O)[C@@H]1CCCN(CCCc2ccc3c(n2)NCCC3)C1 [Compound 270, (S)-2-(bicyclo[2.2.2]octane-1-carboxamido)-3-((R)-1-(3-(5,6,7,8-tetrahydro-1,8-naphthyridin-2-yl)propyl)piperidine-3-carboxamido)propanoic acid] was tested, and the IC50 (αvβ1) was < 0.1 µM and the IC50 (αvβ6) was < 0.1 µM.
With O=C(NC[C@H](Nc1ncnc2ccccc12)C(=O)O)[C@@H]1CCCN(CCCc2ccc3c(n2)NCCC3)C1 [Compound 271, (S)-2-(quinazolin-4-ylamino)-3-((R)-1-(3-(5,6,7,8-tetrahydro-1,8-naphthyridin-2-yl)propyl)piperidine-3-carboxamido)propanoic acid] the IC50 (αvβ1) was < 0.1 µM and the IC50 (αvβ6) was < 0.1 µM.
With O=C(NC[C@H](NS(=O)(=O)c1ccccc1)C(=O)O)[C@@H]1CCCN(CCCc2ccc3c(n2)NCCC3)C1 [Compound 272, (S)-2-(phenylsulfonamido)-3-((R)-1-(3-(5,6,7,8-tetrahydro-1,8-naphthyridin-2-yl)propyl)piperidine-3-carboxamido)propanoic acid] the IC50 (αvβ1) was < 0.1 µM and the IC50 (αvβ6) was < 0.1 µM.
In the case of O=C(NC[C@H](Nc1ccnc2ccccc12)C(=O)O)[C@@H]1CCCN(CCCc2ccc3c(n2)NCCC3)C1 [Compound 273, (S)-2-(quinolin-4-ylamino)-3-((R)-1-(3-(5,6,7,8-tetrahydro-1,8-naphthyridin-2-yl)propyl)piperidine-3-carboxamido)propanoic acid], the IC50 (αvβ1) is reported as < 0.1 µM and the IC50 (αvβ6) is reported as < 0.1 µM.
With O=C(NC[C@H](NS(=O)(=O)C1CCCCC1)C(=O)O)[C@@H]1CCCN(CCCc2ccc3c(n2)NCCC3)C1 [Compound 274, (S)-2-(cyclohexanesulfonamido)-3-((R)-1-(3-(5,6,7,8-tetrahydro-1,8-naphthyridin-2-yl)propyl)piperidine-3-carboxamido)propanoic acid hydrochloride] the IC50 (αvβ1) was < 0.1 µM and the IC50 (αvβ6) was < 0.1 µM.
For O=C(NC[C@H](NS(=O)(=O)c1ccc2c(c1)CCC2)C(=O)O)[C@@H]1CCCN(CCCc2ccc3c(n2)NCCC3)C1 [Compound 275, (2S)-2-(indan-5-ylsulfonylamino)-3-[[(3R)-1-[3-(5,6,7,8-tetrahydro-1,8-naphthyridin-2-yl)propyl]piperidine-3-carbonyl]amino]propanoic acid], the IC50 (αvβ1) was 0.1 to 1 µM and the IC50 (αvβ6) was < 0.1 µM.
